# Measurements from article PMC3812244, “Organophosphate and Pyrethroid Hydrolase Activities of Mutant Esterases from the Cotton Bollworm Helicoverpa armigera” (PLoS ONE, 2013).
# Tests used:
# Experiment in all cases: spectrophotometric esterase kinetics, active-site titrated enzyme
# Settings in all cases: wild-type values collected contemporaneously, also reported in Teese et al. [32]
# 001f (CCE-001f) = system: T1, 001f (CCE-001f); assay type: biochemical, Helicoverpa armigera
# T1 construct: gene CCE001f; untagged, baculovirus expressed in Sf9 cells; titrated active sites
# Source text: spectrophotometric esterase kinetics, active-site titrated enzyme on 001f (CCE-001f)
# 001b (CCE-001b) = system: T2, 001b (CCE-001b); assay type: biochemical, Helicoverpa armigera
# T2 construct: gene CCE001b; untagged, baculovirus expressed in Sf9 cells; titrated active sites
# Source text: spectrophotometric esterase kinetics, active-site titrated enzyme on 001b (CCE-001b)
# CC(=O)Oc1cccc2ccccc12 = assay type: biochemical, Lucilia cuprina
# Source text: spectrophotometric esterase kinetics, active-site titrated enzyme on E3
Molecule,Km (001f (CCE-001f)),Km (001b (CCE-001b)),Km (CC(=O)Oc1cccc2ccccc12),kcat (CC(=O)Oc1cccc2ccccc12)
CC(=O)Oc1cccc2ccccc12 [1-naphthyl acetate],4 µM,199 µM,–,–
E3 (Lucilia cuprina),–,–,88 (10) µM,1399 (70) sec^-1
